Measured values: PubChem BioAssay AID328 (DTP/NCI, 2004)
Where “and” joins values, the source holds several entries; their conditions need not be identical. Identical values can stand only once. Toxic doses and inconclusive results are not listed. How the source made its calls: active means survival T/C of 150% or more; inactive means T/C below 125% in these data.

Tested on: BDF1 mice, P388 leukemia ip, median survival T/C
Test: NCI In Vivo Anticancer Drug Screen. Data for tumor model P388 Leukemia (intraperitoneal) in B6D2F1 (BDF1) mice
Details: endpoint: median survival time, higher = longer survival
Summary of the method: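 Steps: implant the tumour, treat one group with compound and another with vehicle, record survival, then divide treated by control.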

[1] = dose: 100.0 mg/kg/injection, schedule: Q04DX003 (ip), vehicle: Klucel (hydroxypropylcellulose) (HPC)
[2] = dose: 200.0 mg/kg/injection, schedule: Q04DX003 (ip), vehicle: Klucel (hydroxypropylcellulose) (HPC)

Measured: T/C

COc1cc2cc(Oc3ccc4ccc(=O)oc4c3)c(=O)oc2cc1O
inactive: dose: 3.12 mg/kg/injection, schedule: Q01DX009 (ip), vehicle: carboxymethylcellulose (CMC) 95 % of control | dose: 6.25 mg/kg/injection, schedule: Q01DX009 (ip), vehicle: carboxymethylcellulose (CMC) 116 % of control | dose: 6.25 mg/kg/injection, schedule: Q01DX009 (ip), vehicle: saline + alcohol 90 % of control | dose: 12.5 mg/kg/injection, schedule: Q01DX009 (ip), vehicle: carboxymethylcellulose (CMC) 104 % of control | dose: 12.5 mg/kg/injection, schedule: Q01DX009 (ip), vehicle: saline + alcohol 95 % of control | dose: 25.0 mg/kg/injection, schedule: Q01DX009 (ip), vehicle: carboxymethylcellulose (CMC) 108 % of control | dose: 25.0 mg/kg/injection, schedule: Q01DX009 (ip), vehicle: saline + alcohol 113 % of control

CCN(CC)CCCC(C)NC(=O)c1ccc(N(C)C)nc1 (stereo unspecified)
inactive: dose: 50.0 mg/kg/injection, schedule: Q01DX009 (ip), vehicle: water 93 % of control

OCC1OC(n2cnc3cncnc32)C(O)C1O (stereo unspecified)
inactive: dose: 0.78 mg/kg/injection, schedule: Q01DX009 (ip), vehicle: saline 97 % of control | dose: 1.56 mg/kg/injection, schedule: Q01DX009 (ip), vehicle: saline 113 % of control and 115 % of control | dose: 3.13 mg/kg/injection, schedule: Q04DX003 (ip), vehicle: saline 100 % of control | dose: 6.25 mg/kg/injection, schedule: Q04DX003 (ip), vehicle: saline 116 % of control | dose: 25.0 mg/kg/injection, schedule: Q01DX009 (ip), vehicle: saline 100 % of control

CC(C)(C)c1ccc(OS(=O)(=O)c2ccccc2[N+](=O)[O-])cc1
inactive: dose: 100.0 mg/kg/injection, schedule: Q01DX001 (ip), vehicle: saline with Tween-80 104 % of control | dose: 200.0 mg/kg/injection, schedule: Q01DX001 (ip), vehicle: saline with Tween-80 100 % of control | dose: 400.0 mg/kg/injection, schedule: Q01DX001 (ip), vehicle: saline with Tween-80 113 % of control

O=C(CCNOCc1ccccc1)OCc1ccccc1
inactive: dose: 12.5 mg/kg/injection, schedule: Q01DX009 (ip), vehicle: other 101 % of control | dose: 25.0 mg/kg/injection, schedule: Q01DX009 (ip), vehicle: other 100 % of control | dose: 50.0 mg/kg/injection, schedule: Q01DX009 (ip), vehicle: other 101 % of control | dose: 200.0 mg/kg/injection, schedule: Q01DX009 (ip), vehicle: other 89 % of control

CC(=O)O[C@@H]1[C@H]2O[C@H]2[C@H]2O[C@@]2(COC(=O)c2ccccc2)[C@H]1OC(C)=O
inactive: dose: 100.0 mg/kg/injection, schedule: Q01DX010 (ip), vehicle: steriod suspending solution 90 % of control | dose: 200.0 mg/kg/injection, schedule: Q01DX010 (ip), vehicle: steriod suspending solution 90 % of control | dose: 400.0 mg/kg/injection, schedule: Q01DX010 (ip), vehicle: steriod suspending solution 86 % of control

COc1cccc(CN2CCNCC2)c1
inactive: dose: 6.25 mg/kg/injection, schedule: Q04DX003 (ip), vehicle: water 87 % of control | dose: 12.5 mg/kg/injection, schedule: Q04DX003 (ip), vehicle: water 89 % of control | dose: 25.0 mg/kg/injection, schedule: Q04DX003 (ip), vehicle: water 93 % of control | dose: 50.0 mg/kg/injection, schedule: Q04DX003 (ip), vehicle: water 101 % of control | dose: 100.0 mg/kg/injection, schedule: Q04DX003 (ip), vehicle: water 94 % of control

CCSC(C)C
inactive: dose: 100.0 mg/kg/injection, schedule: Q04DX003 (ip), vehicle: saline 100 % of control | dose: 200.0 mg/kg/injection, schedule: Q04DX003 (ip), vehicle: saline 104 % of control | dose: 400.0 mg/kg/injection, schedule: Q04DX003 (ip), vehicle: saline 95 % of control

CCOC(=O)C(Cc1ccc(N(CCCl)CCCl)cc1)NC(=O)C(C)NC(C)=O (stereo unspecified)
inactive: dose: 5.0 mg/kg/injection, schedule: Q04DX003 (ip), vehicle: water 99 % of control | dose: 10.0 mg/kg/injection, schedule: Q04DX003 (ip), vehicle: water 99 % of control | dose: 20.0 mg/kg/injection, schedule: Q04DX003 (ip), vehicle: water 112 % of control | dose: 40.0 mg/kg/injection, schedule: Q04DX003 (ip), vehicle: water 116 % of control

O=C(c1ccccc1Br)C(Br)C(Br)c1ccccc1 (stereo unspecified)
inactive: [1] 120 % of control | [2] 110 % of control

c1ccc([P+](CCCCCCCCCC[P+](c2ccccc2)(c2ccccc2)c2ccccc2)(c2ccccc2)c2ccccc2)cc1
inactive: dose: 2.5 mg/kg/injection, schedule: Q01DX010 (ip), vehicle: saline 100 % of control | dose: 5.0 mg/kg/injection, schedule: Q01DX010 (ip), vehicle: saline 109 % of control

COc1cc(NCc2ccc3nc(N)nc(N)c3c2C)cc(OC)c1OC
inactive: dose: 12.5 mg/kg/injection, schedule: Q01DX009 (oral), vehicle: sodium bicarbonate 113 % of control | dose: 44.0 mg/kg/injection, schedule: Q01DX009 (ip), vehicle: saline with Tween-80 97 % of control | dose: 67.0 mg/kg/injection, schedule: Q01DX009 (ip), vehicle: saline with Tween-80 95 % of control | dose: 100.0 mg/kg/injection, schedule: Q01DX009 (oral), vehicle: sodium bicarbonate 89 % of control
active: dose: 5.0 mg/kg/injection, schedule: Q01DX009 (ip), vehicle: sodium bicarbonate 154 % of control | dose: 10.0 mg/kg/injection, schedule: Q01DX009 (ip), vehicle: sodium bicarbonate 177 % of control | dose: 20.0 mg/kg/injection, schedule: Q01DX009 (ip), vehicle: saline with Tween-80 255 % of control | dose: 20.0 mg/kg/injection, schedule: Q01DX009 (ip), vehicle: sodium bicarbonate 227 % of control | dose: 30.0 mg/kg/injection, schedule: Q01DX009 (ip), vehicle: saline with Tween-80 398 % of control | dose: 40.0 mg/kg/injection, schedule: Q01DX009 (ip), vehicle: sodium bicarbonate 243 % of control | dose: 50.0 mg/kg/injection, schedule: Q01DX009 (oral), vehicle: sodium bicarbonate 170 % of control

C=CCO
inactive: dose: 12.5 mg/kg/injection, schedule: Q01DX001 (ip), vehicle: saline with Tween-80 95 % of control | dose: 25.0 mg/kg/injection, schedule: Q01DX001 (ip), vehicle: saline with Tween-80 104 % of control | dose: 50.0 mg/kg/injection, schedule: Q01DX001 (ip), vehicle: saline with Tween-80 100 % of control

CCC(C)P(=O)(N1CC1)N1CC1 (stereo unspecified)
inactive: dose: 37.5 mg/kg/injection, schedule: Q04DX003 (ip), vehicle: saline 108 % of control

CC1=CC2C(C3C=CC2(C)C(=O)C3(C)Cc2ccccc2)C(C)(Cc2ccccc2)C1=O (stereo unspecified)
inactive: dose: 100.0 mg/kg/injection, schedule: Q01DX001 (ip), vehicle: Klucel (hydroxypropylcellulose) (HPC) 95 % of control | dose: 200.0 mg/kg/injection, schedule: Q01DX001 (ip), vehicle: Klucel (hydroxypropylcellulose) (HPC) 95 % of control | dose: 400.0 mg/kg/injection, schedule: Q01DX001 (ip), vehicle: Klucel (hydroxypropylcellulose) (HPC) 90 % of control

Cc1cc(=O)[nH]c(N/N=C/c2ccc(O)cc2)n1
inactive: dose: 75.0 mg/kg/injection, schedule: Q01DX009 (ip), vehicle: Klucel (hydroxypropylcellulose) (HPC) 104 % of control | dose: 150.0 mg/kg/injection, schedule: Q01DX009 (ip), vehicle: Klucel (hydroxypropylcellulose) (HPC) 109 % of control | dose: 300.0 mg/kg/injection, schedule: Q01DX009 (ip), vehicle: Klucel (hydroxypropylcellulose) (HPC) 95 % of control

CC(=O)OCCC/C(=C/c1ccc(/C=C(\CCCOC(C)=O)[N+](=O)[O-])cc1)[N+](=O)[O-]
inactive: dose: 50.0 mg/kg/injection, schedule: Q04DX003 (ip), vehicle: Klucel (hydroxypropylcellulose) (HPC) 96 % of control | [1] 101 % of control | [2] 101 % of control

CN(C)C1C(=O)C(C(=O)NCN2CCOB(c3ccccc3)OCC2)=C(O)C2(O)C(O)=C3C(=O)C4C(O)=CC=CC4C(C)(O)C3CC12 (stereo unspecified)
inactive: dose: 200.0 mg/kg/injection, schedule: Q04DX002 (ip), vehicle: saline with Tween-80 93 % of control | dose: 400.0 mg/kg/injection, schedule: Q04DX002 (ip), vehicle: saline with Tween-80 112 % of control

CC1C=CCC2C(=O)OC(=O)C12 (stereo unspecified)
inactive: dose: 25.0 mg/kg/injection, schedule: Q04DX003 (ip), vehicle: saline with Tween-80 100 % of control | dose: 50.0 mg/kg/injection, schedule: Q04DX003 (ip), vehicle: saline with Tween-80 100 % of control | dose: 100.0 mg/kg/injection, schedule: Q04DX003 (ip), vehicle: saline with Tween-80 100 % of control

CCOC(=O)C1SC(=S)N(C)C1=O (stereo unspecified)
inactive: dose: 50.0 mg/kg/injection, schedule: Q01DX009 (ip), vehicle: saline with Tween-80 94 % of control | dose: 100.0 mg/kg/injection, schedule: Q01DX009 (ip), vehicle: saline with Tween-80 100 % of control | dose: 200.0 mg/kg/injection, schedule: Q01DX009 (ip), vehicle: saline with Tween-80 100 % of control
